The source of these data is patent US9150566B2, “2-(1,2,3-triazol-2-yl)benzamide and 3-(1,2,3-triazol-2-YL)picolinamide derivatives as orexin receptor antagonists” (ACTELION PHARMACEUTICALS LTD., priority 2011, dated 2015).

In general, pIC50 refers to −log10 of the IC50, conventionally taken in molar units.

Each structure is given as a SMILES string. pIC50: −log10 of the molar value. Where two headings read alike, the source gives them in different places.

The target in one series is human orexin-2 receptor (Homo sapiens (Human), UniProt O43614). Briefly: In vitro intracellular calcium measurements (FLIPR), antagonistic activity on orexin-2 receptor. In kind it is cell-based. To be noted: read-out: IC50 OX2. On the procedure: (§1) In Vitro Assay: Intracellular Calcium Measurements:
(§2) Chinese hamster ovary (CHO) cells expressing the human orexin-1 receptor and the human orexin-2 receptor, respectively, are grown in culture medium (Ham F-12 with L-Glutamine) containing 300 μg/mL G418, 100 U/mL penicillin, 100 μg/mL streptomycin and 10% heat inactivated fetal calf serum (FCS). The cells are seeded at 20′000 cells/well into 384-well black clear bottom sterile plates (Greiner). The seeded plates are incubated overnight at 37° C. in 5% CO2.
(§3) Within the Fluorescent Imaging Plate Reader (FLIPR Tetra, Molecular Devices), antagonists are added to the plate in a volume of 10 μL/well, incubated for 120 min and finally 10 μL/well of agonist is added. Fluorescence is measured for each well at 1 second intervals, and the height of each fluorescence peak is compared to the height of the fluorescence peak induced by 3 nM orexin-A with vehicle in place of antagonist. […] Optimized conditions were achieved by adjustment of pipetting speed and cell splitting regime. The calculated IC50 values may fluctuate depending on the daily cellular assay performance. Fluctuations of this kind are known to those skilled in the art.

For a further series, the target named is human orexin-1 receptor (Homo sapiens (Human), UniProt O43613). Put plainly: In vitro intracellular calcium measurements (FLIPR), antagonistic activity on orexin-1 receptor. In kind it is cell-based. To be noted: read-out: IC50 OX1. On the procedure:
as §1, §2, §3
In general terms: Calcium assays in cells follow changes in intracellular calcium, usually with a dye or a luminescent sensor.

The target of the next series is CYP3A4 (Homo sapiens (Human), UniProt P08684). Briefly: CYP3A4 inhibition assay (human liver microsomes, testosterone 6β-hydroxylation). To be noted: read-out: CYP3A4 IC50, 40 μM testosterone. A general note: Liver microsomes are vesicles of endoplasmic reticulum, rich in cytochrome P450 enzymes.
The mark [1] stands for this setting: CHO cells expressing human orexin-2 receptor, FLIPR, 3 nM orexin-A agonist, 120 min antagonist incubation, geometric mean if determined several times.
Setting [2] is: CHO cells expressing human orexin-1 receptor, FLIPR, 3 nM orexin-A agonist, 120 min antagonist incubation, geometric mean if determined several times.

Sequence of human orexin-1 receptor (O43613 whole entry): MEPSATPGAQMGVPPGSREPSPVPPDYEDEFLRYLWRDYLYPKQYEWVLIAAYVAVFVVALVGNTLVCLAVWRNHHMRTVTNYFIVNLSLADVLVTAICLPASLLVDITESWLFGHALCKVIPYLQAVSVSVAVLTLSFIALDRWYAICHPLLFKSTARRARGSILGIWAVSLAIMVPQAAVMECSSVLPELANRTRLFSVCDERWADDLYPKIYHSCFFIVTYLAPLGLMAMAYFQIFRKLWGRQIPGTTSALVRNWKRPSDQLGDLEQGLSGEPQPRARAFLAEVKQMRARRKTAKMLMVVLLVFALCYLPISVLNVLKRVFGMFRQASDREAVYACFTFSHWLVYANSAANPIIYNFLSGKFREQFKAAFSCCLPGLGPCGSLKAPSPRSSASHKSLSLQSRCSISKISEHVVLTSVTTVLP
Sequence of CYP3A4 (P08684 whole entry): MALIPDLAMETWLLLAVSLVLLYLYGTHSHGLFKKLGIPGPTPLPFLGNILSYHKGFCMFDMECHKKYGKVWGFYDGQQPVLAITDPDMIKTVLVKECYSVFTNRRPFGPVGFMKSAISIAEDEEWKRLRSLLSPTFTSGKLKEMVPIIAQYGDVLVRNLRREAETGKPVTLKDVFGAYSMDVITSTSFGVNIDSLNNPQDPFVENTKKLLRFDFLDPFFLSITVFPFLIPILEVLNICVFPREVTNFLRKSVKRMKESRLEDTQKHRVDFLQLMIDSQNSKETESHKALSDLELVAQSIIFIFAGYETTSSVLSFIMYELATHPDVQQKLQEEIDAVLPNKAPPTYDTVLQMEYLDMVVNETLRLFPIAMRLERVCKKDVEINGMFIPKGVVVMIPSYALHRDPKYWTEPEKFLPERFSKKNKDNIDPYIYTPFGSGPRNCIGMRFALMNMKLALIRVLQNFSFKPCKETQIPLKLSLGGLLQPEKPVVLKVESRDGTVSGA
Sequence of human orexin-2 receptor (O43614 whole entry): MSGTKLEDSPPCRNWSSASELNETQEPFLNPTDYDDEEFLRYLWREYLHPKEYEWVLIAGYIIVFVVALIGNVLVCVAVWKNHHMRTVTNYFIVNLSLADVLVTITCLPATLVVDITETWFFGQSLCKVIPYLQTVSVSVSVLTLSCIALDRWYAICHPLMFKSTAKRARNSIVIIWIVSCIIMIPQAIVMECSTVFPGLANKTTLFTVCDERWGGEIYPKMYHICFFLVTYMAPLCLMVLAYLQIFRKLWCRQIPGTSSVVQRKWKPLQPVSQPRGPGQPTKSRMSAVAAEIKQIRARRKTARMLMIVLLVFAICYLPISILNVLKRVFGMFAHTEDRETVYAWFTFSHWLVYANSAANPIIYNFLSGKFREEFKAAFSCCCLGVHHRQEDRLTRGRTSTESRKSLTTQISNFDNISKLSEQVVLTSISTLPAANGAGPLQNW
Method for CYP3A4: The CYP3A4 inhibition assay was performed using human liver microsomes and testosterone 6β-hydroxylation as a P450 isoform-specific marker. In a total volume of 150 μL, ^14C-testosterone at a final concentration of 40 μM in a 100 mM phosphate buffer (pH 7.4) was incubated in a 96-well plate with 0.3 mg/mL of human liver microsomes in an Eppendorf thermomixer at 37° C. and 400 rpm. […] The reaction was initiated by addition of 15 μL of the NADPH-regenerating system containing the glucose-6-phosphate dehydrogenase and terminated after 7 min with a 75 μL-aliquot of methanol. After centrifugation at 465 g and 4° C. for 20 min, a 50 μL-aliquot of the supernatant was submitted to HPLC according to the method described below. The total concentration of DMSO in the assay including controls without inhibitor was 1%.
Nicardipine was run in parallel as a reference inhibitor of CYP3A4 activity at final concentrations of 0, 0.1, 0.5, 1.0, 5.0, 10, 25, and 50 μM. Stock solutions thereof were prepared in DMSO.
The chromatographic separation of testosterone and 6β-hydroxytestosterone was achieved on a Phenomenex Luna C18(2) column (5 μm, 2.0×10 mm) at RT with a flow rate of 0.6 mL/min. Mobile phases consisted of 1% aqueous formic acid (phase A) and methanol (phase B) using a gradient method with 0.9 min total run time.
The quantification of 6β-hydroxytestosterone was carried out using a quadrupole mass spectrometer equipped with an ionspray interface operating in positive ion mode. The parameters of the mass detector were set as follows: capillary voltage 5 kV, auxiliary gas 40 psi, collision gas 3 mTorr, and transfer capillary temperature 420° C.

On to `O=C(c1ccccc1-n1nccn1)N1CCCC[C@H]1Cc1cccc(-n2nccn2)c1` [Ref. 3], for which the negative logarithm of the IC50 (pIC50) on human orexin-2 receptor (setting [1]) is 7.92; at human orexin-1 receptor (setting [2]) it was 9.00; at CYP3A4 it was 5.21.
With `Cc1ccc(C(=O)N2[C@H](Cc3cccc(-n4nccn4)c3)COC[C@@H]2C)c(-n2nccn2)c1` [Example 71, [(3S,5R)-3-Methyl-5-(3-[1,2,3]triazol-2-yl-benzyl)-morpholin-4-yl]-(4-methyl-2-[1,2,3]triazol-2-yl-phenyl)-methanone], the pIC50 on human orexin-2 receptor was 5.66; at human orexin-1 receptor, 7.46; at CYP3A4, 4.85.
For the molecule `Cc1cccc(C(=O)N2CCOC[C@H]2Cc2cc(-n3nccn3)ccc2Cl)c1-n1nccn1` [Example 122, [(R)-3-(2-Chloro-5-[1,2,3]triazol-2-yl-benzyl)-morpholin-4-yl]-(3-methyl-2-[1,2,3]triazol-2-yl-phenyl)-methanone], the negative logarithm of the IC50 (pIC50) on human orexin-2 receptor (setting [1]) was 5.79; at human orexin-1 receptor (setting [2]) it was 8.22; at CYP3A4, 4.74.
Regarding `COc1cc(C(=O)N2CCOC[C@H]2Cc2cccc(-n3nccn3)c2)c(-n2nccn2)cc1Cl` [Example 104, (4-Chloro-5-methoxy-2-[1,2,3]triazol-2-yl-phenyl)-[(R)-3-(3-[1,2,3]triazol-2-yl-benzyl)-morpholin-4-yl]-methanone], the figures for the pIC50 at human orexin-2 receptor (setting [1]) and at CYP3A4 were 6.93 and 4.89, respectively.
On the same counts, the results for `Cc1ccc(-n2nccn2)c(C(=O)N2C[C@@H](C)OC[C@H]2Cc2cc(-c3ncccn3)ccc2F)c1` [Example 147, [(2R,5R)-5-(2-Fluoro-5-pyrimidin-2-yl-benzyl)-2-methyl-morpholin-4-yl]-(5-methyl-2-[1,2,3]triazol-2-yl-phenyl)-methanone] are 6.77 and 4.55.
The corresponding values for `Cc1ccc(-n2nccn2)c(C(=O)N2CCOC[C@H]2Cc2cccc(-c3ncccn3)c2)c1F` [Example 49, (2-Fluoro-3-methyl-6-[1,2,3]triazol-2-yl-phenyl)-[(R)-3-(3-pyrimidin-2-yl-benzyl)-morpholin-4-yl]-methanone] are 6.24 and 4.68.
The corresponding values for `C[C@@H]1CN(C(=O)c2ccc(Cl)cc2-n2nccn2)[C@H](Cc2cc(-c3ncccn3)ccc2F)CO1` [Example 153, (4-Chloro-2-[1,2,3]triazol-2-yl-phenyl)-[(2R,5R)-5-(2-fluoro-5-pyrimidin-2-yl-benzyl)-2-methyl-morpholin-4-yl]-methanone] are 7.07 and 4.74.
Take `O=C(c1ccc(Cl)cc1-n1nccn1)N1CCOC[C@H]1Cc1cc(-c2ncccn2)ccc1F` [Example 160, (4-Chloro-2-[1,2,3]triazol-2-yl-phenyl)-[(R)-3-(2-fluoro-5-pyrimidin-2-yl-benzyl)-morpholin-4-yl]-methanone]: the pIC50 is 6.57 at human orexin-2 receptor (setting [1]) and 4.77 on CYP3A4.
`Cc1ccc(C(=O)N2CCO[C@H](C)[C@H]2Cc2cccc(-n3nccn3)c2)c(-n2nccn2)c1` (single isomer, unassigned) [Example 168, [(2R,3R)-2-Methyl-3-(3-[1,2,3]triazol-2-yl-benzyl)-morpholin-4-yl]-(4-methyl-2-[1,2,3]triazol-2-yl-phenyl)-methanone or [(2S,3R)-2-Methyl-3-(3-[1,2,3]triazol-2-yl-benzyl)-morpholin-4-yl]-(4-methyl-2-[1,2,3]triazol-2-yl-phenyl)-methanone]: the negative-log IC50 (pIC50) at CYP3A4 was 5.07.
With `Cc1ccc(-n2nccn2)c(C(=O)N2CCOC[C@H]2Cc2cc(-c3ncccn3)ccc2F)c1` [Example 155, [(R)-3-(2-Fluoro-5-pyrimidin-2-yl-benzyl)-morpholin-4-yl]-(5-methyl-2-[1,2,3]triazol-2-yl-phenyl)-methanone], the pIC50 was 6.43 at human orexin-2 receptor (setting [1]) and 4.52 on CYP3A4.
On the same counts, the results for `Cc1ccc(C(=O)N2CCOC[C@H]2Cc2cc(-c3ncccn3)ccc2F)c(-n2nccn2)c1C` [Example 158, (3,4-Dimethyl-2-[1,2,3]triazol-2-yl-phenyl)-[(R)-3-(2-fluoro-5-pyrimidin-2-yl-benzyl)-morpholin-4-yl]-methanone] are 5.65 and 4.40.
`Cc1cccc(C(=O)N2CCOC[C@H]2Cc2cc(-c3ncon3)ccc2F)c1-n1nccn1` [Example 177, [(R)-3-(2-Fluoro-5-[1,2,4]oxadiazol-3-yl-benzyl)-morpholin-4-yl]-(3-methyl-2-[1,2,3]triazol-2-yl-phenyl)-methanone]: the results for the pIC50 on human orexin-2 receptor (setting [1]) and at human orexin-1 receptor (setting [2]) were 6.05 and 7.60, respectively.
In the case of `Cc1cc(C)c(-n2nccn2)c(C(=O)N2CCOC[C@H]2Cc2cccc(-c3ncon3)c2)c1` [Example 89, (3,5-Dimethyl-2-[1,2,3]triazol-2-yl-phenyl)-[(R)-3-(3-[1,2,4]oxadiazol-3-yl-benzyl)-morpholin-4-yl]-methanone], the figures for the negative logarithm of the IC50 (pIC50) on human orexin-2 receptor (setting [1]) and at human orexin-1 receptor (setting [2]) were 6.38 and 8.15, respectively.
The corresponding values for `Cc1ccc(-n2nccn2)c(C(=O)N2CCOC[C@H]2Cc2cccc(-c3cccnc3)c2)c1` [Example 25, (5-Methyl-2-[1,2,3]triazol-2-yl-phenyl)-[(R)-3-(3-pyridin-3-yl-benzyl)-morpholin-4-yl]-methanone] are 5.85 and 7.96.
The corresponding values for `Cc1cc(C(=O)N2CCOC[C@H]2Cc2ccc(C)c(-c3ncon3)c2)c(-n2nccn2)cc1C` [Example 79, (4,5-Dimethyl-2-[1,2,3]triazol-2-yl-phenyl)-[(R)-3-(4-methyl-3-[1,2,4]oxadiazol-3-yl-benzyl)-morpholin-4-yl]-methanone] are 7.89 and 9.40.
Take `O=C(c1ccccc1-n1nccn1)N1CCC[C@H]1Cc1cccc(-n2nccn2)c1` [Ref. 1]: the negative-log IC50 (pIC50) at human orexin-1 receptor (setting [2]) was 8.40; at CYP3A4 it was 5.26.
As to `Cc1cccc(C(=O)N2CCOC[C@H]2Cc2cccc(-c3ncon3)c2)c1-n1nccn1` [Example 83, (3-Methyl-2-[1,2,3]triazol-2-yl-phenyl)-[(R)-3-(3-[1,2,4]oxadiazol-3-yl-benzyl)-morpholin-4-yl]-methanone], the pIC50 at human orexin-1 receptor (setting [2]) was 8.15; at CYP3A4 it was 4.60.
Turning to `O=C(c1ccccc1-n1nccn1)N1CCOC[C@H]1Cc1cccc(-c2cccs2)c1` [Example 46, [(R)-3-(3-Thiophen-2-yl-benzyl)-morpholin-4-yl]-(2-[1,2,3]triazol-2-yl-phenyl)-methanone], the pIC50 is 6.79 at human orexin-2 receptor (setting [1]) and 9.30 on human orexin-1 receptor (setting [2]).
As to `Cc1ccc(C(=O)N2CCO[C@@H](C)[C@H]2Cc2cccc(-n3nccn3)c2)c(-n2nccn2)c1` (single isomer, unassigned) [Example 163, [(2S,3R)-2-Methyl-3-(3-[1,2,3]triazol-2-yl-benzyl)-morpholin-4-yl]-(4-methyl-2-[1,2,3]triazol-2-yl-phenyl)-methanone or [(2R,3R)-2-Methyl-3-(3-[1,2,3]triazol-2-yl-benzyl)-morpholin-4-yl]-(4-methyl-2-[1,2,3]triazol-2-yl-phenyl)-methanone], the pIC50 at CYP3A4 is 4.85.
In the case of `Cc1cccc(C(=O)N2CCOC[C@H]2Cc2cc(-c3ncccn3)ccc2F)c1-n1nccn1` [Example 157, [(R)-3-(2-Fluoro-5-pyrimidin-2-yl-benzyl)-morpholin-4-yl]-(3-methyl-2-[1,2,3]triazol-2-yl-phenyl)-methanone], the pIC50 on human orexin-2 receptor (setting [1]) was 5.59; at human orexin-1 receptor (setting [2]), 7.41.
The corresponding values for `Cc1ccc(-n2nccn2)c(C(=O)N2CCO[C@@H](C)[C@H]2Cc2cccc(-n3nccn3)c2)c1` (single isomer, unassigned) [Example 162, [(2S,3R)-2-Methyl-3-(3-[1,2,3]triazol-2-yl-benzyl)-morpholin-4-yl]-(5-methyl-2-[1,2,3]triazol-2-yl-phenyl)-methanone or [(2R,3R)-2-Methyl-3-(3-[1,2,3]triazol-2-yl-benzyl)-morpholin-4-yl]-(5-methyl-2-[1,2,3]triazol-2-yl-phenyl)-methanone] are 5.60 and 7.62.
In the case of `Cc1ccc(C(=O)N2C[C@@H](C)OC[C@H]2Cc2cccc(-c3ncccn3)c2)c(-n2nccn2)c1C` [Example 112, (3,4-Dimethyl-2-[1,2,3]triazol-2-yl-phenyl)-[(2R,5R)-2-methyl-5-(3-pyrimidin-2-yl-benzyl)-morpholin-4-yl]-methanone], the pIC50 on human orexin-2 receptor (setting [1]) was 6.08; on CYP3A4, < 4.30.
With `Cc1ccnc(-c2cccc(C[C@@H]3COCCN3C(=O)c3ccccc3-n3nccn3)c2)n1` [Example 40, {(R)-3-[3-(4-Methyl-pyrimidin-2-yl)-benzyl]-morpholin-4-yl}-(2-[1,2,3]triazol-2-yl-phenyl)-methanone], the pIC50 was 6.12 on human orexin-2 receptor (setting [1]) and 7.47 on human orexin-1 receptor (setting [2]).
Take `Cc1cc(-n2nccn2)c(C(=O)N2CCOC[C@H]2Cc2cccc(-n3nccn3)c2)cc1Cl` [Example 103, (5-Chloro-4-methyl-2-[1,2,3]triazol-2-yl-phenyl)-[(R)-3-(3-[1,2,3]triazol-2-yl-benzyl)-morpholin-4-yl]-methanone]: the pIC50 was 7.33 at human orexin-2 receptor (setting [1]) and 9.15 on human orexin-1 receptor (setting [2]).
